Six compounds from US5532382A, “Benzothiophenes substituted at the 3-carbonyl” (Eli Lilly and Company, priority 1995, dated 1996) can be followed below.

Where only a bound is given, the exact number is not on record here.

The first series concerns MCII cells. Nature of the series: MCII MAST CELL TOXICITY ASSAY (XTT). In kind it is cell-based, mouse. As to conditions: XTT formazan, 37° C. 4-12 hours; read-out: MCII Mast Cell Toxicity IC50. The text has this:
MCII MAST CELL TOXICITY ASSAY
This toxicity assay is run in parallel with the MCII mast cell LTC4 assay and serves as an indicator of compound effects on the viability and metabolic activity of the MCII cells. This "toxicity" assay is based on the ability of dehydrogenase enzymes present in viable metabolically active cells to bioreduce the tetrazolium salt XTT yielding a colored, water soluble formazan product. (see, Roehm et al.) An improved colorimetric assay for cell proliferation and viability utilizing the tetrazolium salt XTT. J. Immunol. Methods 142:257-65 (1991).
A duplicate polystyrene 96-well tissue culture plate (Costar) is set up with sensitized MCII cells, EM95 ascites, media and dilutions of the test compound as described above. The complete media is supplemented with concanavalin A induced culture supernatants from the mouse helper T cell clone D10.G4, as a source of mast cell growth factors.
Wells of the toxicity assay Elate are pulsed with 25 μl XTT (Sigma) plus phenazine methosulfate (Aldrich) giving a final concentration of 0.2 mg/ml XTT and 25 μM phenazine methosulfate. The plates are incubated at 37° C. in 10% CO2 for 4-12 hours and then production of the XTT formazan product determined by measuring the optical density of the wells at a wavelength of 450 nm. The positive control on each plate is stimulated MCII cells with dimethyl sulfoxide vehicle alone and the negative control is the same reaction mixture without cells. The background negative control value is subtracted from experimental and positive control values and the data are reported as percent of positive control.
Regarding `O=C(c1ccccc1)c1c(-c2ccc(O)cc2)sc2cc(O)ccc12` [Compound A], the CC50 amounted to 0.3 µM.

Consider `Oc1ccc(-c2cc3ccc(O)cc3s2)cc1` [Compound B], for which the CC50 is under 10 µM.

For the compound `O=C(c1ccc(-c2ccccc2)cc1)c1c(-c2ccc(O)cc2)sc2cc(O)ccc12` [Example 1, 6-hydroxyphenyl-2-(p-hydroxyphenyl)-(benzo(B)thien-3-yl)(p-phenyl)phenyl methanone], the CC50 is over 10 µM.

For the compound `O=C(c1cccc2ccccc12)c1c(-c2ccc(O)cc2)sc2cc(O)ccc12` [Example 2, 6-hydroxyphenyl-2-(p-hydroxyphenyl)-(benzo(B)thien-3-yl) (α-naphyl)methanone], the CC50 is over 10 µM.

`O=C(c1ccc2ccccc2c1)c1c(-c2ccc(O)cc2)sc2cc(O)ccc12` [Example 3, 6-hydroxyphenl-2-(p-hydroxyphenyl)-(benzo(B)thien-3-yl) (β-napthyl)methanone]: the CC50 was over 10 µM.

A further series deals with production of thromboxane B2 (T×B2) in plasma-depleted blood. Nature of the series: Inhibition of Eicosanoid Production by Plasma-depleted Blood: TxB2. In kind it is cell-based. As to conditions: Homo sapiens, read-out: Plasma DPLTD Blood TxB2 IC50. As for the experimental part: Inhibition of Eicosanoid Production by Plasma-depleted Blood.
Compounds are evaluated for their ability to inhibit production of leukotriene B4 (LTB4) and thromboxane B2 (T×B2) upon stimulation of human plasma-depleted blood with formyl-methionyl-leucyl-phenylalanine (FMLP) and thrombin. LTB4 is produced by neutrophils and T×B2 by platelets stimulated at their respective receptors with FMLP and thrombin. The assay is carried out in 1 ml deep well polypropylene 96-well plates (Beckman). For the test, ten ml of blood is collected in EDTA at a final concentration of 1.5 mg/ml. Then, 40 ml glucose phosphate buffer containing 0.1% gelatin is added and the suspension centrifuged at 900 g for 10 minutes at room temperature. The supernatant is discarded and the cells washed once with 50 ml buffer before resuspending them in 50 ml Krebs-Ringers-Henseleit Buffer containing 0.1% gelatin, 1 mM […], 1.1 mM MgCl2 (KRH buffer). Working solutions of test compounds are made by dissolving the material in DMSO at 10 mM and diluting with appropriate amounts of KRH buffer. An agonist solution is made containing 1 μM FMLP (sigma) and 10 units/ml of thrombin in KRH buffer (Enzyme Research Labs). […] The amount of LTB4 and T×B2 produced is determined by the use of a competetive enzyme immunoassay using commercial reagents from Cayman Chemical.
On to `O=C(c1ccc(O)cc1)c1c(-c2ccc(O)cc2)sc2cc(O)ccc12` [Compound D], for which the IC50 was over 9.8 µM.
